Bridge positions count the residues as written; N and C are the ends. Square brackets hold non-standard residues; d marks the D form. Peptide text beside a SMILES is read from it. I, II: the chains in the order shown. dTic = O=C(O)[C@H]1Cc2ccccc2CN1; NMeL = CN[C@@H](CC(C)C)C(=O)O

The assay deals with HIV-1 NL4-3. In kind it is cell-based. The conditions noted are these: X4-tropic HIV-1 NL4-3, P4-CCR5 cells. From the text: P4-CCR5 indicator cells (Charneau et al., 1994; Journal of Molecular Biology 241, 651-662) expressing the primary CD4 receptor and both major HIV-1 entry cofactors CXCR4 and CCR5, were used to evaluate whether the oligomeric peptides according to the invention are potent inhibitors of HIV-1 infection. These cells contain the β-galactosidase reporter gene under the control of the HIV-1 promoter. Thus, activation of the β-galactosidase reporter gene allows to measure the efficiency of HIV-1 infection and thus to quantitate the potency of HIV-1 inhibitors (Detheux M. et al., 2000; Journal of Experimental Medicine 192, 1501-1508; Muinch et al., 2002; Antimicrobial Agents and Chemotherapy 46, 982-990).
To perform a typical infection assay, P4-CCR5 cells (Charneau et al., 1994; Journal of Molecular Biology 241, 651-662; Charneau et al., Virology. 1994 205, 247-53) were kept in RPMI 1640 medium supplemented with 10 volume % FCS. This cell line coexpresses CD4 and both HIV-1 coreceptors CCR5 and CXCR4 and contains the β-galactosidase gene under the control of the HIV-1 promoter. Virus stocks were generated by the calcium coprecipitation method as described (Detheux et al., 3 Exp Med. 192:1501-8; 2000), and the p24 antigen levels were quantitated with an HIV p24 ELISA kit obtained through the NIH AIDS Reagent Program. Cells were seeded in flat-bottomed 96-well dishes, cultured overnight, and incubated with the different doses of peptide for 2 h before infection with virus containing 1 ng of p24 antigen in a total volume of […] of medium. After overnight incubation, cells were washed twice and cultivated in fresh culture medium without inhibitory peptide. Three days after infection the cells were lysed, and infectivity was quantitated using the Galacto-Light Plus™ chemiluminescence reporter assay kit (Tropix, Bedford, Mass.) as recommended by the manufacturer. All infections were performed in quintuplicate.
Below, the IC50 values of peptides of the invention obtained from the described infection assay are provided.
The IC50 is the point on the concentration scale where inhibition reaches its midpoint. A higher IC50 goes with a need for much substance. Take “I: H-LEAIPMSIPPEFLFGKPFVFKG-OH / II: H-LEAIPMSIPPEFLFGKPFVF (amide I:21-II:C) [VIR-574]”: it took 3080 nM to reach half-maximal inhibition (IC50).

In turn, `CC[C@H](C)[C@H](NC(=O)[C@H](C)NC(=O)[C@H](CCC(=O)O)NC(=O)[C@@H](N)CC(C)C)C(=O)N1CCC[C@H]1C(=O)N[C@@H](CSSC[C@H](NC(=O)[C@@H]1CCCN1C(=O)[C@@H](NC(=O)[C@H](C)NC(=O)[C@H](CCC(=O)O)NC(=O)[C@@H](N)CC(C)C)[C@@H](C)CC)C(=O)NCC(=O)N[C@H](C(=O)N1CCC[C@H]1C(=O)N1CCC[C@@H]1C(=O)N[C@@H](CCC(=O)O)C(=O)N[C@H](C(=O)N1Cc2ccccc2C[C@@H]1C(=O)N[C@@H](Cc1ccccc1)C(=O)N[C@@H](CC(N)=O)C(=O)N[C@@H](CCCCN)C(=O)N1CCC[C@H]1C(=O)N[C@@H](Cc1ccccc1)C(=O)N[C@H](C(=O)N[C@@H](Cc1ccccc1)C(=O)O)C(C)C)C(C)C)[C@@H](C)CC)C(=O)NCC(=O)N[C@H](C(=O)N1CCC[C@H]1C(=O)N1CCC[C@@H]1C(=O)N[C@@H](CCC(=O)O)C(=O)N[C@H](C(=O)N1Cc2ccccc2C[C@@H]1C(=O)N[C@@H](Cc1ccccc1)C(=O)N[C@@H](CC(N)=O)C(=O)N[C@@H](CCCCN)C(=O)N1CCC[C@H]1C(=O)N[C@@H](Cc1ccccc1)C(=O)N[C@H](C(=O)N[C@@H](Cc1ccccc1)C(=O)O)C(C)C)C(C)C)[C@@H](C)CC` [VIR-706, (LEAIPCGIPpEV(D-Tic)FNKPFVF)2] (I: H-LEAIPCGIP[dP]EV[dTic]FNKPFVF-OH / II: H-LEAIPCGIP[dP]EV[dTic]FNKPFVF-OH; disulfide I:6-II:6; N-terminus and C-terminus assumed) yielded an IC50 of 74 nM.

`CC[C@H](C)[C@H](NC(=O)[C@H](CCCCN)NC(=O)[C@H](CCC(=O)O)NC(=O)[C@@H](N)CC(C)C)C(=O)N1CCC[C@H]1C(=O)N[C@@H](CSSC[C@H](NC(=O)[C@@H]1CCCN1C(=O)[C@@H](NC(=O)[C@H](CCCCN)NC(=O)[C@H](CCC(=O)O)NC(=O)[C@@H](N)CC(C)C)[C@@H](C)CC)C(=O)N[C@@H](CO)C(=O)N[C@H](C(=O)N1CCC[C@H]1C(=O)N1CCC[C@@H]1C(=O)N[C@@H](CCC(=O)O)C(=O)N[C@H](C(=O)N[C@@H](C)C(=O)N[C@@H](Cc1ccccc1)C(=O)N[C@@H](CC(N)=O)C(=O)N[C@@H](CCCCN)C(=O)N1CCC[C@H]1C(=O)N[C@@H](Cc1ccccc1)C(=O)N[C@H](C(=O)N[C@@H](Cc1ccccc1)C(=O)O)C(C)C)C(C)C)[C@@H](C)CC)C(=O)N[C@@H](CO)C(=O)N[C@H](C(=O)N1CCC[C@H]1C(=O)N1CCC[C@@H]1C(=O)N[C@@H](CCC(=O)O)C(=O)N[C@H](C(=O)N[C@@H](C)C(=O)N[C@@H](Cc1ccccc1)C(=O)N[C@@H](CC(N)=O)C(=O)N[C@@H](CCCCN)C(=O)N1CCC[C@H]1C(=O)N[C@@H](Cc1ccccc1)C(=O)N[C@H](C(=O)N[C@@H](Cc1ccccc1)C(=O)O)C(C)C)C(C)C)[C@@H](C)CC` [VIR-705, (LEKIPCSIPpEVAFNKPFVF)2] (I: H-LEKIPCSIP[dP]EVAFNKPFVF-OH / II: H-LEKIPCSIP[dP]EVAFNKPFVF-OH; disulfide I:6-II:6): the IC50 is 484 nM.

Compound `CC[C@H](C)[C@H](NC(=O)[C@H](C)NC(=O)[C@H](CCC(=O)O)NC(=O)[C@H](CC(C)C)NC)C(=O)N1CCC[C@H]1C(=O)N[C@@H](CSSC[C@H](NC(=O)[C@@H]1CCCN1C(=O)[C@@H](NC(=O)[C@H](C)NC(=O)[C@H](CCC(=O)O)NC(=O)[C@H](CC(C)C)NC)[C@@H](C)CC)C(=O)N[C@@H](CO)C(=O)N[C@H](C(=O)N1CCC[C@H]1C(=O)N1CCC[C@H]1C(=O)N[C@@H](CCC(=O)O)C(=O)N[C@@H](Cc1ccccc1)C(=O)N[C@@H](CC(C)C)C(=O)N[C@@H](Cc1ccccc1)C(=O)NCC(=O)N[C@@H](CCCCN)C(=O)N1CCC[C@H]1C(=O)N[C@@H](Cc1ccccc1)C(=O)N[C@H](C(=O)N[C@@H](Cc1ccccc1)C(=O)O)C(C)C)[C@@H](C)CC)C(=O)N[C@@H](CO)C(=O)N[C@H](C(=O)N1CCC[C@H]1C(=O)N1CCC[C@H]1C(=O)N[C@@H](CCC(=O)O)C(=O)N[C@@H](Cc1ccccc1)C(=O)N[C@@H](CC(C)C)C(=O)N[C@@H](Cc1ccccc1)C(=O)NCC(=O)N[C@@H](CCCCN)C(=O)N1CCC[C@H]1C(=O)N[C@@H](Cc1ccccc1)C(=O)N[C@H](C(=O)N[C@@H](Cc1ccccc1)C(=O)O)C(C)C)[C@@H](C)CC` [VIR-712] (I: H-[NMeL]EAIPCSIPPEFLFGKPFVF-OH / II: H-[NMeL]EAIPCSIPPEFLFGKPFVF-OH; disulfide I:6-II:6; C-terminus assumed) gave an IC50 of 195 nM.

`CC[C@H](C)[C@H](NC(=O)[C@H](C)NC(=O)[C@H](CCC(=O)O)NC(=O)[C@@H](N)CC(C)C)C(=O)N1CCC[C@H]1C(=O)N[C@@H](CCSC)C(=O)N[C@@H](CSSC[C@H](NC(=O)[C@H](CCSC)NC(=O)[C@@H]1CCCN1C(=O)[C@@H](NC(=O)[C@H](C)NC(=O)[C@H](CCC(=O)O)NC(=O)[C@@H](N)CC(C)C)[C@@H](C)CC)C(=O)N[C@H](C(=O)N1CCC[C@H]1C(=O)N1CCC[C@H]1C(=O)N[C@@H](CCC(=O)O)C(=O)N[C@@H](Cc1ccccc1)C(=O)N[C@@H](CC(C)C)C(=O)N[C@@H](Cc1ccccc1)C(=O)NCC(=O)N[C@@H](CCCCN)C(=O)N1CCC[C@H]1C(=O)N[C@@H](Cc1ccccc1)C(=O)N[C@H](C(=O)N[C@@H](Cc1ccccc1)C(=O)O)C(C)C)[C@@H](C)CC)C(=O)N[C@H](C(=O)N1CCC[C@H]1C(=O)N1CCC[C@H]1C(=O)N[C@@H](CCC(=O)O)C(=O)N[C@@H](Cc1ccccc1)C(=O)N[C@@H](CC(C)C)C(=O)N[C@@H](Cc1ccccc1)C(=O)NCC(=O)N[C@@H](CCCCN)C(=O)N1CCC[C@H]1C(=O)N[C@@H](Cc1ccccc1)C(=O)N[C@H](C(=O)N[C@@H](Cc1ccccc1)C(=O)O)C(C)C)[C@@H](C)CC` [VIR-577] (I: H-LEAIPMCIPPEFLFGKPFVF-OH / II: H-LEAIPMCIPPEFLFGKPFVF-OH; disulfide I:7-II:7) came in with an IC50 of 3270 nM.
